Legend:
EP2 [1] = target: T1, EP2 (Homo sapiens, UniProt P43116); test: EP2 flipr functional assay; assay type: cell-based
Text: (§1) U.S. patent application Ser. No. 11/553,143, filed on Oct. 26, 2006, incorporated by reference herein, describes the methods used to obtain the in vitro data in the table below.

EP2 [2] = target: T1, EP2; test: EP2 cAMP assay; assay type: cell-based
Text: as §1

EP2 [3] = target: T1, EP2; test: EP2 binding (KI)
Text: as §1

EP4 [4] = target: T2, EP4 (Homo sapiens, UniProt P35408); test: EP4 flipr functional assay; assay type: cell-based
Text: as §1

EP4 [5] = target: T2, EP4; test: EP4 binding (KI)
Text: as §1

hDP = target: T3, hDP (Homo sapiens, UniProt Q13258); test: Other receptors functional assay, hDP; assay type: cell-based
T3 sequence (Q13258 1-359): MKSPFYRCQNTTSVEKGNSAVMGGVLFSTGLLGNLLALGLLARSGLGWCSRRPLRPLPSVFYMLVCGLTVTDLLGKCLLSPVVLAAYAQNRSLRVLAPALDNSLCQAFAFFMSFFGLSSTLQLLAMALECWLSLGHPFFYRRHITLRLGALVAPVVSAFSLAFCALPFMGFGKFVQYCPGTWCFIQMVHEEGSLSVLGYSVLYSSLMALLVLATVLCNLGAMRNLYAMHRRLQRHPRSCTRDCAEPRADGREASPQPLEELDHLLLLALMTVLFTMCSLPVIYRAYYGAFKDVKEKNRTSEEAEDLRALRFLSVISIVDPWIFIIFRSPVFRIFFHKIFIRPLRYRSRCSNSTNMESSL
Text: as §1

T2 sequence (P35408 whole entry): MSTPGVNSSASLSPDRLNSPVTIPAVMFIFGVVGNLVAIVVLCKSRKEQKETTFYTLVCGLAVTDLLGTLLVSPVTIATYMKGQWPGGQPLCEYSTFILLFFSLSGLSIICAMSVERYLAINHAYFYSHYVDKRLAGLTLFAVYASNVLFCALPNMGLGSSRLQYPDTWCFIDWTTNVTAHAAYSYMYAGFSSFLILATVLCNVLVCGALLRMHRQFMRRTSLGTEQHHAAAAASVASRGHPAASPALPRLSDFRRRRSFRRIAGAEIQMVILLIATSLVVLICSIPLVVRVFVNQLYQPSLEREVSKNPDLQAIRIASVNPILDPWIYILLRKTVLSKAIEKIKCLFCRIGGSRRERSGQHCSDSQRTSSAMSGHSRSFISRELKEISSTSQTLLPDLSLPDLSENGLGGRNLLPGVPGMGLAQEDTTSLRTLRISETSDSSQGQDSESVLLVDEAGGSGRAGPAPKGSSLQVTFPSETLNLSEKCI
T1 sequence (P43116 whole entry): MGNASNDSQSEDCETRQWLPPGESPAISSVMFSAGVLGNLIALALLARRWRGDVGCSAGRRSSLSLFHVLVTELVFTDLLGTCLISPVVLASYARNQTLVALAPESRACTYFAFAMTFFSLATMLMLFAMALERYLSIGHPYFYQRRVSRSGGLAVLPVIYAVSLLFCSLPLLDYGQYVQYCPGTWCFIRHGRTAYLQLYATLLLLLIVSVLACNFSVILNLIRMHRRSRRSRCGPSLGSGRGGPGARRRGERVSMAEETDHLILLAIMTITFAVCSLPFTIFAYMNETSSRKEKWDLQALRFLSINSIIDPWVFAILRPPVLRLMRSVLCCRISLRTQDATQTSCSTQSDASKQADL

| EC50 (EP2 [1]) [µM] | EC50 (EP2 [2]) [µM] | Ki (EP2 [3]) [µM] | EC50 (EP4 [4]) [µM] | Ki (EP4 [5]) [µM] | EC50 (hDP) [µM] | Compound |
| --- | --- | --- | --- | --- | --- | --- |
| > 10 | 0.004 | 0.159 | > 10 | 7.99 | – | O=C(O)c1ccc(COC[C@H]2CCC(=O)N2CCc2cc(Cl)cc(Cl)c2)s1 [(R)-5-(((1-(3,5-dichlorophenethyl)-5-oxopyrrolidin-2-yl)methoxy)methyl)thiophene-2-carboxylic acid] |
| 8.41 | 0.0022 | 0.024 | – | > 10 | 6.22 | O=C(O)c1ccc(CCC[C@H]2CCC(=O)N2CCc2cc(Cl)cc(Cl)c2)s1 [(S)-5-(3-(1-(3,5-dichlorophenethyl)-5-oxopyrrolidin-2-yl)propyl)thiophene-2-carboxylic acid] |
